Results published in publication PMC5564600 (Oncotarget, 2017).

How the values were obtained:
Experiment in all cases: biochemical
Format in all cases: binding
panel of 442 kinases [1] = target: T1, panel of 442 kinases (Homo sapiens, UniProt P43403); conditions: kinase ZAP70; for remaining activity at 1 µM: read-out: ZAP70 (% of control at 1 µM)
T1 construct: purchased Ambit Biosciences (scanMAXX KINOMEscan)
T1 sequence (P43403 1-619): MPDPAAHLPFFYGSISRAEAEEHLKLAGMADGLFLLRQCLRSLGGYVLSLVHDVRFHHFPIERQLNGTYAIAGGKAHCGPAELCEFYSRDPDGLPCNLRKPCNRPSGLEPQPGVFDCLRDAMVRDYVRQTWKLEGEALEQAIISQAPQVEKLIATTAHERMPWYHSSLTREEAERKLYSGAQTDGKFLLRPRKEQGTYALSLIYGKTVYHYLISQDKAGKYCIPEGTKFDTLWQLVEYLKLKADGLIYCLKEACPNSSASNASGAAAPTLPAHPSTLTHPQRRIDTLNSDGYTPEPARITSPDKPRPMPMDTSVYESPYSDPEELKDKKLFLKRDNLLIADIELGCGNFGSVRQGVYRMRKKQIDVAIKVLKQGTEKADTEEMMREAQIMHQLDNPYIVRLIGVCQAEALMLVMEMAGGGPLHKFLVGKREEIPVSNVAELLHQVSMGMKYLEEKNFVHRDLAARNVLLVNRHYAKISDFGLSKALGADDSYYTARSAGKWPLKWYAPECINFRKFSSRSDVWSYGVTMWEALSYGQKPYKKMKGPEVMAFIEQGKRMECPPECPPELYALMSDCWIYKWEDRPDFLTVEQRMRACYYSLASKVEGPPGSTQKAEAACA

panel of 442 kinases [2] = target: T2, panel of 442 kinases (Homo sapiens, UniProt Q02156); conditions: kinase PRKCE; for remaining activity at 1 µM: read-out: PRKCE (% of control at 1 µM)
T2 construct: purchased Ambit Biosciences (scanMAXX KINOMEscan)
T2 sequence (Q02156 1-737): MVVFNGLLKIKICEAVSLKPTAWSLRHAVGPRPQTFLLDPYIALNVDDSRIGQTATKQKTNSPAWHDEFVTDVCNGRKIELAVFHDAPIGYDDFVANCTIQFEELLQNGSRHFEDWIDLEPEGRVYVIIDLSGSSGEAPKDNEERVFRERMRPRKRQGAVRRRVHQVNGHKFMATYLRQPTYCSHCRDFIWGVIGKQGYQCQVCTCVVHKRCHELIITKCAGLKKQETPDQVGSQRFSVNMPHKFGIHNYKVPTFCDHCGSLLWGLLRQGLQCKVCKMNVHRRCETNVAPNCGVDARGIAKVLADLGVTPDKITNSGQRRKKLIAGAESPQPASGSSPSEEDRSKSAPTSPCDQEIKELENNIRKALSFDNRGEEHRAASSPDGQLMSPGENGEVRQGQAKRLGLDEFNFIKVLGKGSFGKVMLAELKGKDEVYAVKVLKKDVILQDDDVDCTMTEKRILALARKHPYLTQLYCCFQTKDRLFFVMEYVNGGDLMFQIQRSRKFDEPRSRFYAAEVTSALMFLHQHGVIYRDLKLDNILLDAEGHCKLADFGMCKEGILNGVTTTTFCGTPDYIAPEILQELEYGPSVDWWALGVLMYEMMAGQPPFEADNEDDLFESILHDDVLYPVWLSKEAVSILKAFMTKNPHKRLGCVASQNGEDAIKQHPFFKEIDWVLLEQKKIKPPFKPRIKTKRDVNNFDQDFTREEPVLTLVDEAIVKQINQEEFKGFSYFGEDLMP

panel of 442 kinases [3] = target: T3, panel of 442 kinases (Homo sapiens, UniProt Q13470); conditions: kinase TNK1; for remaining activity at 1 µM: read-out: TNK1 (% of control at 1 µM)
T3 construct: purchased Ambit Biosciences (scanMAXX KINOMEscan)
T3 sequence (Q13470 1-666): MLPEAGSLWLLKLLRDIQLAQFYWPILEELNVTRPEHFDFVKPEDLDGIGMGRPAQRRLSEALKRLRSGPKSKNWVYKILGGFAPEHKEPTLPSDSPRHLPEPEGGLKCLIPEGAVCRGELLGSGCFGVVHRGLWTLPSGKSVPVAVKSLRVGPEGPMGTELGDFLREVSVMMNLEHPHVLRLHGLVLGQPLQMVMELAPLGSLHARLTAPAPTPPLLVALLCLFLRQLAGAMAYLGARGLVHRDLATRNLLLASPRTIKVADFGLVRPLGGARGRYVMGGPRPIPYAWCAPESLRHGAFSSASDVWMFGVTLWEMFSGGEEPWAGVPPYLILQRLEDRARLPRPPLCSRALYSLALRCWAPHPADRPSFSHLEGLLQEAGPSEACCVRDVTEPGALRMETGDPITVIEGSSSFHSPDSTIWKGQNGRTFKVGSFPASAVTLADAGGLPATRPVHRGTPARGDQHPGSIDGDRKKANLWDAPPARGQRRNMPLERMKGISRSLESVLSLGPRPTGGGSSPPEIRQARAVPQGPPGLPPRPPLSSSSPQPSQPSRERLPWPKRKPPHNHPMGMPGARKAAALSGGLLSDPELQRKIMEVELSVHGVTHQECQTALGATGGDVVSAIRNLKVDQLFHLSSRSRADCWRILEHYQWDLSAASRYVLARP

panel of 442 kinases [4] = target: T4, panel of 442 kinases (Homo sapiens, UniProt Q9BUB5); conditions: kinase MKNK1; for remaining activity at 1 µM: read-out: % of control at 1 µM
T4 construct: purchased Ambit Biosciences (scanMAXX KINOMEscan)
T4 sequence (Q9BUB5 whole entry): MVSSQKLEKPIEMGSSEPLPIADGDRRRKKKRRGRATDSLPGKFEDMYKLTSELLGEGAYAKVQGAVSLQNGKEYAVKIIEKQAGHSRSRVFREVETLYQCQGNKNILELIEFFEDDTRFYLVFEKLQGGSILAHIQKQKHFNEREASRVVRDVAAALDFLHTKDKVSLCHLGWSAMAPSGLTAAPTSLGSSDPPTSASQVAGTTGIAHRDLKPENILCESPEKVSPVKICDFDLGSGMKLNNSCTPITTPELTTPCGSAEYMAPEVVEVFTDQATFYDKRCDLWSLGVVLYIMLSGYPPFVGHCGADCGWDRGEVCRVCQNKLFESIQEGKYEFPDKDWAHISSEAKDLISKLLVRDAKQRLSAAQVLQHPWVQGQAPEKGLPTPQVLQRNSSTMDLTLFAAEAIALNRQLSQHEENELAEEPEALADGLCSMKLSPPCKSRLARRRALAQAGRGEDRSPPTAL

Row | Structure (SMILES) | remaining activity at 1 µM (panel of 442 kinases [1]) [%] | remaining activity at 10 µM (panel of 442 kinases [1]; 10 µM, read-out: ZAP70 (% of control at 10 µM)) [%] | remaining activity at 1 µM (panel of 442 kinases [2]) [%] | remaining activity at 10 µM (panel of 442 kinases [2]; 10 µM, read-out: PRKCE (% of control at 10 µM)) [%] | remaining activity at 1 µM (panel of 442 kinases [3]) [%] | remaining activity at 10 µM (panel of 442 kinases [3]; 10 µM, read-out: TNK1 (% of control at 10 µM)) [%] | remaining activity at 1 µM (panel of 442 kinases [4]) [%] | remaining activity at 10 µM (panel of 442 kinases [4]; 10 µM, read-out: % of control at 10 µM) [%]
1 | Nc1cc(C(F)(F)F)c(-c2cc(N3CCOCC3)nc(N3CCOCC3)n2)cn1 [Buparlisib] | 100 | 100 | 97 | 100 | 100 | 100 | 100 | 100
2 | Cn1c(=O)n(-c2ccc(C(C)(C)C#N)cc2)c2c3cc(-c4cnc5ccccc5c4)ccc3ncc21 [Dactolisib, 2-methyl-2-[4-(3-methyl-2-oxo-8-quinolin-3-yl-2,3-dihydroimidazo[4,5-c]quinolin-1-yl)-phenyl] propionitrile] | 99 |  | 78 |  | 88 |  | 100 | 
3 | COc1ncc(-c2ccc3nccc(-c4ccnnc4)c3c2)cc1NS(=O)(=O)c1ccc(F)cc1F [Omipalisib] | 100 |  | 100 |  | 100 |  | 43 | 
4 | FC(F)c1nc2ccccc2n1-c1nc(N2CCOCC2)nc(N2CCOCC2)n1 [ZSTK474, 2-(difluoromethyl)-1-[4,6-di(4-morpholinyl)-1,3,5-triazin-2-yl]-1H-benzimidazole] | 94 |  | 100 |  | 86 |  | 92 | 
